From ChEMBL document CHEMBL1201862, “PubChem BioAssay data set” (2004)
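Grown in 96-well plates, cells were treated for 48 hours with each compound at five concentrations. Insufficient inhibition: endpoint recorded as highest concentration tested. GI50 = concentration required for 50% inhibition of growth.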 Activity calls are given as the source filed them. Cut-off read from the data, not from the text of the source: active = GI50 up to about 1.1 µM and inactive = higher.

Assays:
Assay in all cases: NCI anticancer screen, dose series, 48 h
786-0 = test system: 786-0
A498 = test system: A498
DU-145 = test system: DU-145
EKVX = test system: EKVX
HOP-62 = test system: HOP-62
HOP-92 = test system: HOP-92
Hs-578T = test system: Hs-578T
IGROV-1 = test system: IGROV-1
M14 = test system: M14
Malme-3M = test system: Malme-3M
SF-268 = test system: SF-268
SF-539 = test system: SF-539
SK-OV-3 = test system: SK-OV-3
SN12C = test system: SN12C
U-251 = test system: U-251
UACC-62 = test system: UACC-62
LOX IMVI = test system: LOX IMVI
TK-10 = test system: TK-10

Row | Structure (SMILES) | GI50 (786-0) | GI50 (A498) | GI50 (DU-145) | GI50 (EKVX) | GI50 (HOP-62) | GI50 (HOP-92) | GI50 (Hs-578T) | GI50 (IGROV-1) | GI50 (M14) | GI50 (Malme-3M) | GI50 (SF-268) | GI50 (SF-539) | GI50 (SK-OV-3) | GI50 (SN12C) | GI50 (U-251) | GI50 (UACC-62) | GI50 (LOX IMVI) | GI50 (TK-10)
1 | CC(C)CCNC(=O)C(CC(C)C)NC(=O)[C@H]1O[C@@H]1C(=O)O (stereo partly specified) | > 100 µM (inactive) | > 100 µM (inactive) | > 100 µM (inactive) | > 100 µM (inactive) | > 100 µM (inactive) | > 100 µM (inactive) | > 100 µM (inactive) | > 100 µM (inactive) | > 100 µM (inactive) | > 100 µM (inactive) | > 100 µM (inactive) | > 100 µM (inactive) | > 100 µM (inactive) | > 100 µM (inactive) | > 100 µM (inactive) | > 100 µM (inactive) | – | –
2 | N[C@@H]1CCN(c2c(F)cc3c(=O)c(C(=O)O)cn4c3c2Oc2c-4ccc3c2ccc2ccccc23)C1 | 0.412 µM (active) | 11.9 µM (inactive) | 3.81 µM (inactive) | 0.857 µM (active) | 1.38 µM (inactive) | 2.13 µM (inactive) | 10.8 µM (inactive) | 0.413 µM (active) | 5.55 µM (inactive) | – | 5.73 µM (inactive) | 3.01 µM (inactive) | 7.46 µM (inactive) | 3.37 µM (inactive) | 0.571 µM (active) | 2.79 µM (inactive) | 1.68 µM (inactive) | 2.38 µM (inactive)
3 | CCCCn1c(N)c(-c2nc3ccccc3o2)sc1=S | 17.3 µM (inactive) | 31.8 µM (inactive) | 12.4 µM (inactive) | 21.8 µM (inactive) | 21.5 µM (inactive) | 45.5 µM (inactive) | 26.9 µM (inactive) | 21.8 µM (inactive) | 23 µM (inactive) | 16.3 µM (inactive) | 16.4 µM (inactive) | 10.1 µM (inactive) | 22.7 µM (inactive) | 22.1 µM (inactive) | 15.9 µM (inactive) | 11.2 µM (inactive) | – | 18.3 µM (inactive)
4 | COC1=CC(=O)c2c(c(-c3csc(C)n3)cn2C)C1=O | 36 µM (inactive) | 22.5 µM (inactive) | 4.85 µM (inactive) | 20 µM (inactive) | 30 µM (inactive) | > 100 µM (inactive) | 21.6 µM (inactive) | 20.7 µM (inactive) | 5.58 µM (inactive) | – | 27.2 µM (inactive) | 17.9 µM (inactive) | 57.3 µM (inactive) | 22.1 µM (inactive) | 69.7 µM (inactive) | 12.1 µM (inactive) | 4.81 µM (inactive) | 29.9 µM (inactive)
5 | COC(=O)C1CCC(=S)N1C(=O)c1ccccc1 (stereo unspecified) | > 100 µM (inactive) | > 100 µM (inactive) | > 100 µM (inactive) | 87.3 µM (inactive) | > 100 µM (inactive) | > 100 µM (inactive) | > 100 µM (inactive) | > 100 µM (inactive) | > 100 µM (inactive) | > 100 µM (inactive) | > 100 µM (inactive) | – | > 100 µM (inactive) | – | > 100 µM (inactive) | > 100 µM (inactive) | – | > 100 µM (inactive)
6 | CN(C)S(=O)(=O)c1ccc2c(c1)/C(=C1/Nc3ccccc3C1=O)C(=O)N2 | 16 µM (inactive) | 29.8 µM (inactive) | 24.9 µM (inactive) | 24 µM (inactive) | 15.7 µM (inactive) | 16.8 µM (inactive) | 14.4 µM (inactive) | 11.9 µM (inactive) | > 100 µM (inactive) | > 100 µM (inactive) | 14.7 µM (inactive) | – | 13.9 µM (inactive) | 38 µM (inactive) | 10.6 µM (inactive) | 14.7 µM (inactive) | 41.6 µM (inactive) | 19.5 µM (inactive)
7 | Clc1ccc(NCc2nnc(COc3ccc(OCc4nnc(CNc5ccc(Cl)cc5)o4)c(Cl)c3)o2)cc1 | > 100 µM (inactive) | 28.4 µM (inactive) | > 100 µM (inactive) | 22.8 µM (inactive) | > 100 µM (inactive) | 13.3 µM (inactive) | 28.1 µM (inactive) | 17.2 µM (inactive) | > 100 µM (inactive) | 51.1 µM (inactive) | 33.7 µM (inactive) | – | – | 43.5 µM (inactive) | 39.3 µM (inactive) | 4.66 µM (inactive) | 20.3 µM (inactive) | 56.9 µM (inactive)
8 | CCN(CC)C1=Nc2ccccc2-n2ccnc2C1 | > 100 µM (inactive) | > 100 µM (inactive) | > 100 µM (inactive) | > 100 µM (inactive) | > 100 µM (inactive) | > 100 µM (inactive) | > 100 µM (inactive) | > 100 µM (inactive) | > 100 µM (inactive) | – | > 100 µM (inactive) | > 100 µM (inactive) | – | > 100 µM (inactive) | > 100 µM (inactive) | > 100 µM (inactive) | > 100 µM (inactive) | > 100 µM (inactive)
9 | CSc1ccc(/C=C2\N=C(c3ccccc3)N(/N=C/c3cc4cc(C)ccc4nc3Cl)C2=O)cc1 | 17.9 µM (inactive) | 17.5 µM (inactive) | 17.8 µM (inactive) | 32.4 µM (inactive) | 33.2 µM (inactive) | 17.9 µM (inactive) | 23.1 µM (inactive) | 14.3 µM (inactive) | 16.7 µM (inactive) | – | 19.1 µM (inactive) | 16.5 µM (inactive) | 24 µM (inactive) | 17.7 µM (inactive) | 20 µM (inactive) | 15.6 µM (inactive) | 18.6 µM (inactive) | 16.9 µM (inactive)
10 | C=CCCC1CCCNC1=S (stereo unspecified) | > 100 µM (inactive) | > 100 µM (inactive) | > 100 µM (inactive) | > 100 µM (inactive) | > 100 µM (inactive) | > 100 µM (inactive) | > 100 µM (inactive) | > 100 µM (inactive) | > 100 µM (inactive) | – | > 100 µM (inactive) | > 100 µM (inactive) | > 100 µM (inactive) | > 100 µM (inactive) | > 100 µM (inactive) | > 100 µM (inactive) | – | > 100 µM (inactive)
11 | CC1(C)CC2(C)CC1CC2(O)c1ccccc1 (stereo unspecified) | > 100 µM (inactive) | > 100 µM (inactive) | > 100 µM (inactive) | – | > 100 µM (inactive) | 42.7 µM (inactive) | > 100 µM (inactive) | > 100 µM (inactive) | > 100 µM (inactive) | > 100 µM (inactive) | > 100 µM (inactive) | > 100 µM (inactive) | > 100 µM (inactive) | > 100 µM (inactive) | > 100 µM (inactive) | > 100 µM (inactive) | – | > 100 µM (inactive)
12 | CC(=O)NC1C(OCc2ccccc2)OC(CO)C(O)C1OCC(=O)N1CCCC1C(=O)N[C@@H](CCC(=O)NCCCCNc1c2ccccc2nc2cccc([N+](=O)[O-])c12)C(N)=O (stereo partly specified) | 46.1 µM (inactive) | 35.7 µM (inactive) | 31.8 µM (inactive) | 43.3 µM (inactive) | 37.9 µM (inactive) | 9.33 µM (inactive) | 21.1 µM (inactive) | 14.8 µM (inactive) | 16 µM (inactive) | 33.3 µM (inactive) | 31.6 µM (inactive) | 77.4 µM (inactive) | 99.1 µM (inactive) | 23.7 µM (inactive) | 18.9 µM (inactive) | – | – | 73.8 µM (inactive)
